Assay in all cases: NCI-60 cell line screen, 48 h
The test system of experiment [1] is SF-295 CNS.
Experiment [2] deals with ACHN renal.
Experiment [3] has as its system CCRF-CEM leukemia.
The test system of experiment [4] is SNB-19 CNS.
The subject of experiment [5] is SN12C renal.
The test system of experiment [6] is NCI-H460 lung.
Experiment [7] deals with MDA-N.
Experiment [8] has as its system UO-31 renal.
Experiment [9] relates to HCT-15 colon.
For experiment [10], the system named is PC-3 prostate.
Experiment [11] relates to A498 renal.

Each structure is given as a SMILES string.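 96-well plates; 48 h exposure; 5 concentrations. Endpoints by linear interpolation between flanking doses. Not reached: highest tested concentration assigned. Definition used: TGI = concentration required for complete inhibition of growth.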 Some results are limits rather than exact numbers.

With `Cc1[nH]c(=O)nc2nc3ccc(Cl)cc3c(NCCNCCO)c12`, the TGI in [1] is 30.2 µM; in experiment [2], 27.4 µM; in [3], 28.1 µM; in [4] it was 21.4 µM; in experiment [5], 19.8 µM; in [6] it was 25 µM. The TGI was determined as 25.4 µM in experiment [7]; 20.7 µM in [8]; 31.9 µM in experiment [9]; 27.4 µM in [10]; 34.6 µM in experiment [11].
Take `CCOC(=O)NC(Nc1ccc(C)cc1)(C(F)(F)F)C(F)(F)F`: the TGI in experiment [1], in [2], in experiment [3], in experiment [4], in experiment [5] and in experiment [6] was more than 100 µM each time. The TGI in experiment [7], in experiment [8], in experiment [9], in [10] and in experiment [11] was more than 100 µM in each case.
As to `CCN(CC)Cc1ccc(C(=S)Nc2ccc(Cl)cc2)s1`, the TGI in experiment [1] stood at 25.2 µM; in experiment [2], 28.3 µM; in [3], 34.1 µM; in experiment [4], 31.6 µM; in [6] it was 27.9 µM; in experiment [7], 23.6 µM. Moreover, the TGI in experiment [8] stood at 23.5 µM; in [9] it was 23 µM; in experiment [10], 28.6 µM; in [11], 25.8 µM.
`O=C1c2ccccc2C(=O)c2c(NCC(O)CO)ccc(NCC(O)CO)c21` (stereo unspecified): the TGI in experiment [2], in [3], in experiment [4], in experiment [5], in experiment [6] and in [7] was more than 100 µM throughout. For the same compound, the TGI in experiment [8] was 71.2 µM; in experiment [9], more than 100 µM; in [10] it was more than 100 µM; in [11], more than 100 µM.
With `C/C=C/C(CC(O)(C(F)(F)F)C(F)(F)F)=N/NC(N)=S`, the TGI in [1], in experiment [2], in experiment [3], in [4], in experiment [5] and in [6] was more than 10 µM throughout. The TGI in experiment [7], in experiment [9], in [10] and in [11] was more than 10 µM throughout.
In the case of `CCOC(=O)Nc1[nH]cc(-c2ccccc2)c1C#N`, the TGI in experiment [1], in experiment [2], in experiment [3], in experiment [4], in [5] and in experiment [7] was more than 100 µM each time. For the same compound, the TGI in experiment [8], in [9], in experiment [10] and in experiment [11] was more than 100 µM each time.
For `C=CCn1c(N)c(C#N)c(C#N)c1-c1ccccc1`, the TGI in [1], in experiment [2], in experiment [3], in experiment [4], in [5] and in [7] was more than 100 µM each time. In addition, the TGI in [8], in experiment [9], in experiment [10] and in experiment [11] was more than 100 µM each time.
Regarding `CC(=O)Nc1sc(Br)cc1S(=O)(=O)c1ccc(Cl)cc1`, the TGI in [1], in experiment [2], in [3], in [4], in experiment [5] and in experiment [6] was more than 100 µM throughout. Also, the TGI is more than 100 µM in experiment [7], 83.1 µM in experiment [8], 43.1 µM in [10] and more than 100 µM in experiment [11].
In the case of `C=CCc1cccc2cc(C(=O)NCc3ccccc3)c(=N)oc12`, the TGI was more than 100 µM in experiment [2]; more than 100 µM in experiment [3]; more than 100 µM in [4]; 91 µM in experiment [5]; more than 100 µM in experiment [6]; more than 100 µM in [7]. In addition, the TGI in experiment [9] is more than 100 µM; in experiment [10], more than 100 µM; in experiment [11] it was 86.8 µM.
As to `CCO/C(O)=C(/C(=N)N1CCOCC1)C(=O)Nc1ccc(F)cc1`, the TGI in experiment [1], in experiment [2], in experiment [3], in experiment [4], in experiment [5] and in experiment [6] was more than 100 µM throughout. In addition, the TGI in experiment [7], in experiment [9], in experiment [10] and in experiment [11] was more than 100 µM each time.
For `N#Cc1n[nH]n(-c2ccc(Br)cc2)c1=O`, the TGI in experiment [1], in [2], in experiment [3], in experiment [4], in [5] and in experiment [7] was more than 100 µM in each case. Moreover, the TGI in [8], in experiment [9], in experiment [10] and in experiment [11] was more than 100 µM each time.
As for `CC(=O)N(C(C)=O)c1ncc(-n2nc(-c3ccccc3)cc2-c2ccccc2)c(-c2ccccc2)n1`, the TGI in experiment [1], in experiment [2], in experiment [3], in experiment [4], in experiment [5] and in experiment [6] was more than 10 µM each time. Also, the TGI was 9.42 µM in experiment [7], more than 10 µM in [9], more than 10 µM in experiment [10] and more than 10 µM in [11].
For the compound `O=c1oc2ccccc2cc1-c1cc2ccccn2c1`, the TGI in [1], in [2], in experiment [3], in [4], in [6] and in experiment [7] was more than 100 µM each time. Besides, the TGI in [8], in [9], in experiment [10] and in experiment [11] was more than 100 µM in each case.
Take `N#CC1C(=S)NC(c2ccccc2)=CC12CCCCC2` (stereo unspecified): the TGI is 72.3 µM in experiment [2]; 56.4 µM in experiment [3]; more than 100 µM in experiment [4]; more than 100 µM in [5]; more than 100 µM in [6]; more than 100 µM in experiment [7]. Also, the TGI in experiment [8] is 72.1 µM; in [9], 53 µM; in experiment [10], more than 100 µM; in experiment [11], 50.3 µM.
